# According to PubChem BioAssay AID1626 (SRMLSC, 2009):
# Tested on: M. tuberculosis H37Rv growth inhibition
# Assay: M. tuberculosis H37Rv growth inhibitors, H37Rv strain (AID 1626)
# Settings: for IC90: measured here: IC90 against H37Rv; for CC50: measured here: Vero cell cytotoxicity
Structure (SMILES),IC50,IC90,CC50
CCOC(=O)c1ccc(N2CSC3=C(C#N)C(c4cccs4)CC(=O)N3C2)cc1 (centres undefined),30.5 µM,> 100 µM,
Cc1ccc(-n2cc(CN(C)Cc3ncc[nH]3)c(-c3cccc(C)c3)n2)cc1,10.3 µM,13.5 µM,> 40 µM
CC1=Nc2ccccc2/C1=C/c1sc(=N)n(-c2nccs2)c1O,< 0.195 µM,< 0.195 µM,14.3 µM
Cc1ccc(NC(=O)COC(=O)C2=COCCO2)c([N+](=O)[O-])c1,6.3 µM,> 100 µM,
Cc1nc2ccc(NC(=O)c3ccc(Br)o3)cc2s1,64.2 µM,> 100 µM,
CC(C)Cc1cc(C(=O)Nc2cc(Br)ccc2O)no1,3.9 µM,> 100 µM,26.5 µM
CCOc1cc(CNC(C)(C)CO)cc(Br)c1OCc1ccc(Cl)cc1Cl,11.4 µM,12.3 µM,12.7 µM
O=c1oc2ccccc2nc1/C=C(\O)c1ccc(Br)cc1,3.56 µM,> 100 µM,
Cc1[nH]n(-c2nc(-c3ccc(Cl)cc3)cs2)c(=O)c1N=Nc1ccc(O)cc1,< 0.195 µM,5.6 µM,15.8 µM
Cc1cc(C)c2nc(/N=C(\N)NC(=O)Nc3ccccc3)nc(C)c2c1,4.02 µM,5.93 µM,> 40 µM
O=C1CC(=C(c2ccccc2)c2ccccc2)C(=O)N1CCCCN1CCN(c2cccc(Cl)c2)CC1,4.47 µM,6.35 µM,> 40 µM
Oc1cccc2ccc(/C=C/c3c(F)cccc3Cl)nc12,1.37 µM,6.64 µM,> 40 µM
O=C(OCc1cccc2ccccc12)c1ccc2c(=O)[nH]c(CN3CCOCC3)nc2c1,0.478 µM,> 100 µM,> 40 µM
O=C1CCNc2ccc(-c3ccccc3)cc21,,> 100 µM,
Cc1ccc(NCCC(=O)c2cccs2)cc1Cl,34.6 µM,> 100 µM,
Clc1ccc2nc(-c3ccccn3)c(Nc3ccc4c(c3)OCO4)n2c1,2.56 µM,4.43 µM,11.1 µM
CCCCCCc1cc2cc(C(=O)NC)c(=N)oc2cc1O,4.69 µM,7.11 µM,
CCCc1cc(NCCCn2ccnc2)n2nc(C)c(-c3ccccc3)c2n1,6.28 µM,9.38 µM,> 40 µM
CCc1nnc(NC(=O)c2cc3ccccc3oc2=O)s1,< 0.195 µM,4.5 µM,
COC(=O)CCCn1c(C)cc(C(=O)CCl)c1C,5.45 µM,18.4 µM,21.1 µM
CCC1CCCCN1C(=O)COC(=O)c1cc(Br)ccc1Cl (centres undefined),15.2 µM,> 100 µM,
Cc1cc2ccccc2n1CCNC(=O)COc1ccc2ccccc2c1,52.5 µM,> 100 µM,
CCc1ccc(/C=C/C(=O)C2C(=O)c3ccccc3C2=O)cc1,1.76 µM,2.92 µM,> 40 µM
Cc1nn(-c2ccccc2)c2c1C(c1ccc([N+](=O)[O-])cc1)N1C(=N2)C(=O)Nc2ccccc21 (centres undefined),19.1 µM,> 100 µM,> 40 µM
O=S(=O)(Nc1nc2ccccc2nc1Nc1ccc(N2CCOCC2)cc1)c1cc(Cl)ccc1Cl,,> 100 µM,22.3 µM
CCn1cc(C(=O)NCc2cccc(F)c2)c(=O)c2cc(F)c(N3CCN(C(=O)c4ccco4)CC3)cc21,2.69 µM,6.52 µM,27 µM
CC(C)(C)NC(=O)COC(=O)c1snc(C(=O)NC2CCCCC2)c1N,1.84 µM,3.78 µM,> 40 µM

Structure (SMILES),IC50,IC90,CC50
COc1ccc(NS(=O)(=O)c2ccc3nc(COc4cccc5ccccc45)[nH]c3c2)cc1,9.84 µM,15 µM,29.6 µM
CCOc1ccc2ncc(S(=O)(=O)c3ccc(C)cc3)c(N3CCC4(CC3)OCCO4)c2c1,28.2 µM,> 100 µM,> 40 µM
COC(=O)CSc1nnc(-c2ccc(OC)cc2OC)o1,1.76 µM,4.54 µM,
CCCCc1c(C)c(C#N)c2nc3ccccc3n2c1Cl,10.1 µM,> 100 µM,5.35 µM
Cc1ccc(-c2nnc3sc(C4COc5ccccc5O4)nn23)cc1 (centres undefined),4.77 µM,> 100 µM,
O=C(/C=C/c1ccc(Cl)c([N+](=O)[O-])c1)c1cccnc1,1.18 µM,2.47 µM,38.8 µM
CN1CCN(C2=Cc3ccc(Cl)cc3Sc3ccc(F)cc32)CC1,10.9 µM,12.3 µM,33.9 µM
O=C(CSc1ccccn1)Nc1ccc2ccccc2c1,8.69 µM,> 100 µM,
c1cnc2c(c1)ccc1cccnc12,4.46 µM,8.17 µM,3.98 µM
Cc1ccc(NC(NC(=O)c2cccs2)C(Cl)(Cl)Cl)cc1C (centres undefined),24.3 µM,> 100 µM,> 40 µM
CCCc1ccc(C2C3=C(CC(C)(C)CC3=O)NC3=C2C(=O)c2ccccc23)cc1 (centres undefined),5.54 µM,> 100 µM,> 40 µM
CCOC(=O)c1cnc2ccc(OCC)cc2c1NCc1ccccc1,15.7 µM,22.2 µM,> 40 µM
O=C(NCCc1nc2ccccc2[nH]1)/C(=C/c1ccc2c(c1)OCO2)NC(=O)c1ccc(Cl)cc1Cl,20.6 µM,52.9 µM,
CCOc1ccc(NC(=O)c2ccc(NC(=O)c3cn4c5c(c(N6CCN(C)CC6)c(F)cc5c3=O)OCC4C)cc2)cc1 (centres undefined),2.83 µM,3.17 µM,> 40 µM
CC(C)c1ccc(CNC(=O)CSCC(=O)Nc2ccc3ccccc3c2)cc1,18 µM,> 100 µM,
Nc1nc(Cl)cc(N2CCC(c3cc(-c4ccc(Cl)cc4)n[nH]3)CC2)n1,77.9 µM,> 100 µM,13.6 µM
O=C(CCc1ccc(Oc2cc([N+](=O)[O-])cc([N+](=O)[O-])c2)cc1)N1CCCCCC1,7.53 µM,15.6 µM,37.2 µM
COc1cc2nc(C3CCC3)nc(N3CCN(c4ccccc4OC)CC3)c2cc1OC,3.9 µM,6.52 µM,> 40 µM
COc1ccc(/C=C/C(=O)c2ccc(C)c([N+](=O)[O-])c2)cc1O,,> 100 µM,34.8 µM
CC1CC1C(=O)Nc1ccc(-c2ccccc2)cc1 (centres undefined),0.31 µM,> 100 µM,
CCN(CC)CCn1c(NC(=O)c2ccc(C(F)(F)F)cc2)nc2ccccc21,,,> 40 µM
COc1ccc(NC2(c3ccc(Cl)cc3)C(=O)c3ccccc3C2=O)cc1,,> 100 µM,
CCCCCc1cc(=O)oc2c(C(CCN(CC)CC)c3ccc(OC)cc3)c(OC)cc(OC)c12 (centres undefined),9.08 µM,11.7 µM,13 µM
CCCSC1=C(C#N)C(c2cccs2)C(C(=O)Nc2ccccc2)=C(C)N1 (centres undefined),7.77 µM,68.2 µM,> 40 µM
CCOC(=O)c1cnc(-n2nc(C)cc2C)nc1NCc1ccc2c(c1)OCO2,4.62 µM,> 100 µM,> 40 µM
COC(=O)c1cccc(NC(=O)NC23CC4CC(CC(C4)C2)C3)c1,23.9 µM,> 100 µM,> 40 µM
CC(C)(C)c1ccc(OC(=O)c2ccc3snnc3c2)cc1,5.94 µM,> 100 µM,

Structure (SMILES),IC50,IC90,CC50
Cc1cc(NC(=O)C2CCCCC2)n(-c2nc3ccccc3[nH]2)n1,2.54 µM,5.5 µM,38 µM
CCOC(=O)CSc1nnc(-c2ccc(Cl)cc2Cl)o1,< 0.391 µM,9.47 µM,
CC[n+]1c(/C=C2\Sc3ccccc3N2C)ccc2cccc(C)c21,1.01 µM,1.4 µM,2.41 µM
Clc1ccc(-c2nnc(SCc3nc4ccccc4s3)o2)cc1,5.3 µM,> 100 µM,
Cn1c(-c2c(N)n(CCc3ccccc3)c3nc4ccccc4nc23)nc2ccccc21,1.83 µM,28.4 µM,35.1 µM
Nc1nc(COc2ccc(Cl)cc2)cs1,,> 100 µM,
Cc1cc(=O)oc2ccc(OC(=O)CC(C)C)cc12,,> 100 µM,
COc1ccc(Cl)cc1NC(=O)C(C)N1CCN(C/C=C/c2ccccc2)CC1 (centres undefined),12.3 µM,13.3 µM,
CCCn1c(NC(=O)c2ccc(Br)cc2)nc2ccccc21,17.2 µM,> 100 µM,> 40 µM
COc1ccc2cc(C(c3nnnn3C3CCCC3)N3CCCCCC3)c3nnnn3c2c1 (centres undefined),,,15.1 µM
O=c1oc2ccccc2c(Nc2ccc3ccccc3c2)c1[N+](=O)[O-],7.32 µM,> 100 µM,> 40 µM
COc1cccc(C(=O)Oc2ccccc2/C=C\C(=O)c2cc3ccccc3o2)c1,3.43 µM,5.83 µM,11.4 µM
COc1ccc(C2(O)CC3CCC(C2)N3c2cc(C)nc(-c3ccccc3)n2)cc1 (centres undefined),17.5 µM,23.9 µM,> 40 µM
c1ccc(CN2CCN(c3nc(NCc4ccco4)c4ccccc4n3)CC2)cc1,7.96 µM,10.3 µM,35.1 µM
Cc1cccc(CSc2nnc(CCCCCNC(=O)OC(C)(C)C)o2)c1,15.3 µM,21.3 µM,> 40 µM
Cc1ccc2nc(Cl)c(/C=C/C(=O)c3ccco3)cc2c1,2.26 µM,4.01 µM,25 µM
O=C(CSc1ncnc2sc3c(c12)CCCC3)N1CCC(c2noc3ccc(F)cc23)CC1,2.94 µM,4.24 µM,> 40 µM
O=C(Nc1ccc(-n2cccc2)cc1)C1CC1,< 0.195 µM,> 100 µM,
Cc1ccc2cc(/C=C/C(=O)c3ccco3)c(Cl)nc2c1,19.3 µM,> 100 µM,> 40 µM
CCc1ccc(C(=O)CSC2=C(C#N)C(c3ccco3)C(C(C)=O)=C(C)N2)cc1 (centres undefined),7.81 µM,23.3 µM,> 40 µM
O=C(NC1CCCCC1)C(c1ccc2ncccc2c1)N(Cc1ccccc1)C(=O)c1ccc2c(c1)OCCO2 (centres undefined),19 µM,28.2 µM,
O=C(Nc1nc(-c2ccccn2)cs1)C1CC1,3.96 µM,> 100 µM,> 40 µM
Cc1ccc(NC(=O)c2ccc([N+](=O)[O-])o2)cc1C,< 0.195 µM,8.63 µM,> 40 µM
c1ccc(CCNc2ccnc3cc4ccccc4cc23)cc1,1.5 µM,1.69 µM,8.57 µM
COc1cnc(-c2ccccn2)nc1Sc1ccc(F)cc1,< 0.195 µM,12.9 µM,19.2 µM
CNC(=O)c1csc(-c2ccc(Cl)cc2)n1,38.6 µM,> 100 µM,
